# Data published in patent US5665760A, “Lyophilized thioxanthenone antitumor agents” (priority 1995, dated 1997).
# Values joined by “and” are separate entries in the source; they are usually repeats but may differ in a detail not shown here. Identical values can stand only once.
# Tests used:
# [1] = excipient alone; cited from earlier work
# Colon 51/A = assay: antitumor activity in mice against Colon 51/A; assay type: in vivo; details: p.o. days 3-7
# Procedure: (§1) Representative examples of the invention were tested for antitumor activity in mice according to the following procedure:
# (§2) The animals were pooled, implanted subcutaneously with 30 to 60 mg tumor fragments by 12-gauge trocar, and again pooled before unselective distribution to the various treatment and control groups. For early-stage treatment, chemotherapy was started within 1 to 5 days after tumor implantation while the number of cells was relatively small (10^7 to 10^8 cells). For advanced-stage treatment, chemotherapy was delayed until the tumor became relatively large (200 to 300 mg in size). A 300-mg tumor contains approximately 3×10^8 total cells. […] Tumors were measured with a caliper weekly (or twice weekly for the more rapidly growing tumors). Mice were sacrificed when their tumors reached 1500 mg (i.e., before they can cause the animal discomfort). Tumor weights were estimated from two-dimensional measurements.
# (§3) The treatment and control groups were measured when the control group tumors reached approximately 700 to 1200 mg in size (Median of Group). The median tumor weight of each group was determined (including zeros). […] A T/C value <10% is considered to indicate highly significant antitumor activity.
# Mammary 16/C/Adr = assay: antitumor activity in mice against Mammary 16/C/Adr (adriamycin resistant); assay type: in vivo
# Procedure: as §1
# (§4) The animals were pooled, implanted subcutaneously with 30 to 60 mg tumor fragments by 12-gauge trocar, and again pooled before unselective distribution to the various treatment and control groups. For early-stage treatment, chemotherapy was started within 1 to 5 days after tumor implantation while the number of cells was relatively small (10^7 to 10^8 cells). For advanced-stage treatment, chemotherapy was delayed until the tumor became relatively large (200 to 300 mg in size). A 300-mg tumor contains approximately 3×10^8 total cells. Tumors within a given advanced-stage trial were within a 2.5-fold size range for 90% of the animals. Tumors were measured with a caliper weekly (or twice weekly for the more rapidly growing tumors). Mice were sacrificed when their tumors reached 1500 mg (i.e., before they can cause the animal discomfort). Tumor weights were estimated from two-dimensional measurements.
# (§5) The treatment and control groups were measured when the control group tumors reached approximately 700 to 1200 mg in size (Median of Group). The median tumor weight of each group was determined (including zeros). The T/C value (weight of treated tumors over the weight of control tumors) in percent is an indication of antitumor effectiveness: A T/C equal to or less than 42% is considered significant antitumor activity by the Drug Evaluation Branch of the Division of Cancer Treatment (NCl). A T/C value <10% is considered to indicate highly significant antitumor activity. A body weight loss nadir (mean of group) of greater than 20% or greater than 20% drug-deaths is considered to indicate an excessively toxic dosage.
# colon adenocarcinoma #38 = assay: antitumor activity in mice against colon adenocarcinoma #38; assay type: in vivo
# Procedure: as §1, §2, §3
# The results are shown in Table I for pancreatic ductal adenocarcinoma #03 and in Table 2 for colon adenocarcinoma #38.
# [2] = tested on: pancreatic ductal adenocarcinoma #03; assay: antitumor activity in mice against pancreatic ductal adenocarcinoma #03 (Panc 03); assay type: in vivo
# Mammary 16/C = assay: antitumor activity in mice against Mammary 16/C; assay type: in vivo; details: 4 hr infusion days 1, 4; for Tumor Free: 13 days of observation
# Procedure: as §1, §2, §3
# [3] = tested on: Human Adeno Squamous Lung #125; assay: antitumor activity in mice against Human Adeno Squamous Lung #125; assay type: in vivo; details: 16 hr infusion days 7, 20
# Colon #51 = assay: antitumor activity in mice against Colon #51; assay type: in vivo; details: 3 hr infusion days 3, 7; for Tumor Free: 50 days of observation
# Procedure: as §1, §4, §5
# [4] = 960 mg/kg total, 3 hr infusion days 1, 4
# [5] = 600 mg/kg total, 4 hr infusion days 6, 13
# [6] = 960 mg/kg total, 4 hr infusion days 6, 13
structure (smiles),measurement,setting,value
OC[C@H]1O[C@@](CO)(O[C@H]2O[C@H](CO)[C@@H](O)[C@H](O)[C@H]2O)[C@@H](O)[C@@H]1O [sucrose],glass transition temperature of excipient,[1],-32 °C
"CCN(CC)CCNc1ccc(CN(C)S(C)(=O)=O)c2sc3ccccc3c(=O)c12 [Example 8(a), N-[[1-[[2-(Diethylamino)ethyl)amino]-9-oxothioxanthen-yl]methyl]N-methylmethanesulfonamide]",T/C Value,Colon 51/A; 250 mg/kg total,16%
same,Wt. Loss at Nadir,Colon 51/A; 250 mg/kg total,-1.6 g/mouse
same,T/C Value,Colon 51/A; 500 mg/kg total,0%
same,Wt. Loss at Nadir,Colon 51/A; 500 mg/kg total,-4.6 g/mouse
same,Drug Deaths,"Mammary 16/C/Adr; mouse, in vivo",5/6 and 3/6 and 0/4
same,T/C Value,"colon adenocarcinoma #38; 112 mg/kg total, i.p. days 3-10",3%
same,T/C Value,"colon adenocarcinoma #38; 196 mg/kg total, i.p. days 3-10",0%
same,T/C Value,"colon adenocarcinoma #38; 275 mg/kg total, p.o. days 3-7",0%
same,T/C Value,"colon adenocarcinoma #38; 340 mg/kg total, i.p. days 3-10",0%
same,T/C Value,"colon adenocarcinoma #38; 550 mg/kg total, p.o. days 3-7",0%
same,Drug Deaths,"colon adenocarcinoma #38; mouse, in vivo",0
"[Cl-].[Na+] [NaCl, sodium chloride]",glass transition temperature of excipient,[1],-87 °C
"CCN(CC)CCNc1ccc(CNC)c2sc3ccccc3c(=O)c12 [Example 5, 1-[[2-(Diethylamino)ethyl]amino]-4-[(methylamino)-methyl]thioxanthen-9-one]",T/C,[2],0%
same,T/C Value,"[2]; 222 mg/kg total, 3 hr infusion",0%
same,Wt. Loss at Nadir,"[2]; 222 mg/kg total, 3 hr infusion",-1.6 g/mouse
same,Tumor Free,"[2]; 222 mg/kg total, 3 hr infusion, 108 days of observation",1/4
same,Weight Loss,"[2]; Table 1, average body weight 25 g, total doses as in E1",1.6 g
same,Drug Deaths,"[2]; Table 1, total doses as in E1",0
same,T/C Value,Mammary 16/C; 454 mg/kg total,16%
same,Wt. Loss at Nadir,Mammary 16/C; 454 mg/kg total,-1.2 g/mouse
same,Tumor Free,Mammary 16/C; 454 mg/kg total,0/7
same,T/C Value,Mammary 16/C; 720 mg/kg total,18%
same,Wt. Loss at Nadir,Mammary 16/C; 720 mg/kg total,-2.0 g/mouse
same,Tumor Free,Mammary 16/C; 720 mg/kg total,0/7
same,T/C Value,[3]; 600 mg/kg total,15%
same,Wt. Loss at Nadir,[3]; 600 mg/kg total,-0.4 g/mouse
same,Tumor Free,"[3]; 600 mg/kg total, 33 days of observation",0/5
same,Tumor Free,"[3]; 600 mg/kg total, 132 days of observation",0/5
same,T/C Value,[3]; 960 mg/kg total,16%
same,Wt. Loss at Nadir,[3]; 960 mg/kg total,-0.4 g/mouse
same,Tumor Free,"[3]; 960 mg/kg total, 33 days of observation",1/4
same,Tumor Free,"[3]; 960 mg/kg total, 132 days of observation",0/4
same,T/C Value,Mammary 16/C/Adr; [4],23%
same,Wt. Loss at Nadir,Mammary 16/C/Adr; [4],-2.8 g/mouse
same,T/C Value,Colon #51; 454 mg/kg total,12%
same,Wt. Loss at Nadir,Colon #51; 454 mg/kg total,-2.8 g/mouse
same,Tumor Free,Colon #51; 454 mg/kg total,0/7
same,T/C Value,Colon #51; 720 mg/kg total,8%
same,Wt. Loss at Nadir,Colon #51; 720 mg/kg total,-1.1 g/mouse
same,Tumor Free,Colon #51; 720 mg/kg total,0/5
same,activity against colon adenocarcinoma #38,colon adenocarcinoma #38; 300 mg/kg p.o.,active
same,T/C Value,"colon adenocarcinoma #38; 477 mg/kg total, 3-15 bolus",9%
same,Wt. Loss at Nadir,"colon adenocarcinoma #38; 477 mg/kg total, 3-15 bolus",-2.8 g/mouse
same,Tumor Free,"colon adenocarcinoma #38; 477 mg/kg total, 3-15 bolus, 100 days of observation",0/5
same,T/C Value,colon adenocarcinoma #38; [5],26%
same,Wt. Loss at Nadir,colon adenocarcinoma #38; [5],-2.0 g/mouse
same,Tumor Free,"colon adenocarcinoma #38; 600 mg/kg total, 4 hr infusion days 6, 13, 20 days of observation",0/7
same,Tumor Free,"colon adenocarcinoma #38; 600 mg/kg total, 4 hr infusion days 6, 13, 100 days of observation",0/7
same,T/C Value,"colon adenocarcinoma #38; 732 mg/kg total, 3-15 bolus",0%
same,Wt. Loss at Nadir,"colon adenocarcinoma #38; 732 mg/kg total, 3-15 bolus",-2.0 g/mouse
same,Tumor Free,"colon adenocarcinoma #38; 732 mg/kg total, 3-15 bolus, 100 days of observation",1/5
same,T/C Value,colon adenocarcinoma #38; [6],11%
same,Wt. Loss at Nadir,colon adenocarcinoma #38; [6],-2.9 g/mouse
same,Tumor Free,"colon adenocarcinoma #38; 960 mg/kg total, 4 hr infusion days 6, 13, 20 days of observation",2/7
same,Tumor Free,"colon adenocarcinoma #38; 960 mg/kg total, 4 hr infusion days 6, 13, 100 days of observation",1/7
same,Drug Deaths,"colon adenocarcinoma #38; Table 2, i.v., total dose mg/kg by Example: 2:600, 5:960, 6:132, 7:840, 16(a):1000, 18(e):180",0
same,T/C,colon adenocarcinoma #38; iv,11%
same,Weight Loss,"colon adenocarcinoma #38; mouse, in vivo, iv",2.9 g
